Data on 26 molecules can be found in PubChem BioAssay AID256 (DTP/NCI, 2004).

This assay relates to CD2F1 mice, L1210 leukemia ip, survival T/C. In words: NCI In Vivo Anticancer Drug Screen. Data for tumor model L1210 Leukemia (intraperitoneal) in CD2F1 (CDF1) mice. The note with it: endpoint: mean survival time, higher = longer survival. In outline:
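Transplantable tumor in mice; compound-treated vs vehicle-treated groups. Read-out = treated/control ratio of the measured endpoint.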

Setting [1] is: dose: 100.0 mg/kg/injection, schedule: Q01DX001 (ip), vehicle: saline with Tween-80.
Setting [2] is: dose: 200.0 mg/kg/injection, schedule: Q01DX001 (ip), vehicle: saline with Tween-80.
The mark [3] stands for this setting: dose: 400.0 mg/kg/injection, schedule: Q01DX001 (ip), vehicle: saline with Tween-80.
Setting [4] is: dose: 100.0 mg/kg/injection, schedule: Q01DX009 (ip), vehicle: saline with Tween-80.
Where [5] appears, read: dose: 200.0 mg/kg/injection, schedule: Q01DX009 (ip), vehicle: saline with Tween-80.
The mark [6] stands for this setting: dose: 400.0 mg/kg/injection, schedule: Q01DX009 (ip), vehicle: saline with Tween-80.
Setting [7] is: dose: 50.0 mg/kg/injection, schedule: Q04DX002 (ip), vehicle: saline with Tween-80.
[8] abbreviates: dose: 100.0 mg/kg/injection, schedule: Q04DX002 (ip), vehicle: saline with Tween-80.
The mark [9] stands for this setting: dose: 200.0 mg/kg/injection, schedule: Q04DX002 (ip), vehicle: saline with Tween-80.
Where [10] appears, read: dose: 400.0 mg/kg/injection, schedule: Q04DX002 (ip), vehicle: saline with Tween-80.
[11] abbreviates: dose: 100.0 mg/kg/injection, schedule: Q04DX003 (ip), vehicle: saline with Tween-80.
[12] abbreviates: dose: 200.0 mg/kg/injection, schedule: Q04DX003 (ip), vehicle: saline with Tween-80.
[13] abbreviates: dose: 400.0 mg/kg/injection, schedule: Q04DX003 (ip), vehicle: saline with Tween-80.
The mark [14] stands for this setting: dose: 100.0 mg/kg/injection, schedule: Q04DX003 (ip), vehicle: saline.
The mark [15] stands for this setting: dose: 200.0 mg/kg/injection, schedule: Q04DX003 (ip), vehicle: saline.

The structures appear in SMILES notation. “And” between values parts separate entries of the source, which are not always exact repeats. Equal entries are not always repeated. Toxic doses and inconclusive results are not listed.

Consider `[Cl][Pt][Cl].c1ccc([PH+](c2ccccc2)c2ccccc2)cc1.c1ccc([PH+](c2ccccc2)c2ccccc2)cc1`, for which the T/C was 95 % of control under setting [1], 92 % of control under setting [2] and 92 % of control under setting [3].
As for `CSc1ccc(SC)nn1`, the T/C was 102 % of control under setting [4], 96 % of control under setting [5] and 91 % of control under setting [6].
As to `COC(=O)c1ccccc1Cn1c(C)cnc1C`, the T/C is, setting by setting: (dose: 12.5 mg/kg/injection, schedule: Q01DX009 (ip), vehicle: saline) 101 % of control; (dose: 25.0 mg/kg/injection, schedule: Q01DX009 (ip), vehicle: saline) 93 % of control; (dose: 50.0 mg/kg/injection, schedule: Q01DX009 (ip), vehicle: saline) 101 % of control and 105 % of control.
`CC(C)C(S(=O)(=O)c1ccccc1)S(=O)(=O)c1ccccc1`: the T/C was 105 % of control (dose: 100.0 mg/kg/injection, schedule: Q01DX001 (ip), vehicle: saline); 103 % of control (dose: 200.0 mg/kg/injection, schedule: Q01DX001 (ip), vehicle: saline); 96 % of control (dose: 400.0 mg/kg/injection, schedule: Q01DX001 (ip), vehicle: saline).
Regarding `CN(C)c1ccc(/C=C/c2ccc3ccccc3n2)c(F)c1`, the T/C is 100 % of control (dose: 100.0 mg/kg/injection, schedule: Q01DX009 (ip), vehicle: Klucel (hydroxypropylcellulose) (HPC)); 98 % of control (dose: 200.0 mg/kg/injection, schedule: Q01DX009 (ip), vehicle: Klucel (hydroxypropylcellulose) (HPC)); 89 % of control (dose: 400.0 mg/kg/injection, schedule: Q01DX009 (ip), vehicle: Klucel (hydroxypropylcellulose) (HPC)).
As for `CCC1=C/C(=C\c2ccc3c(c2)OCO3)C(=O)S1`, the T/C was 93 % of control (dose: 25.0 mg/kg/injection, schedule: Q04DX002 (ip), vehicle: saline with Tween-80); 89 % of control under setting [7]; 93 % of control under setting [8].
In the case of `O=C1OCCN1NCc1ccc(Cl)cc1`, the T/C by setting is: (dose: 12.5 mg/kg/injection, schedule: Q01DX009 (ip), vehicle: DMSO) 88 % of control; (dose: 25.0 mg/kg/injection, schedule: Q01DX009 (ip), vehicle: DMSO) 93 % of control; (dose: 50.0 mg/kg/injection, schedule: Q01DX009 (ip), vehicle: DMSO) 89 % of control and 91 % of control; (dose: 100.0 mg/kg/injection, schedule: Q01DX009 (ip), vehicle: DMSO) 96 % of control.
As to `CCN(CCNC(=O)Nc1ccccc1OC)c1ccccc1`, the T/C runs as follows: under setting [8], 98 % of control; under setting [9], 94 % of control; under setting [10], 94 % of control.
`CNCCC(=N)C(=N)CCNC`: the T/C by setting is: (dose: 100.0 mg/kg/injection, schedule: Q04DX002 (ip), vehicle: saline) 111 % of control; (dose: 200.0 mg/kg/injection, schedule: Q04DX002 (ip), vehicle: saline) 106 % of control; (dose: 400.0 mg/kg/injection, schedule: Q04DX002 (ip), vehicle: saline) 103 % of control.
With `O=C(O)c1ccc2c(c1Cl)C(=O)c1ccccc1C2=O`, the T/C is, setting by setting: (dose: 50.0 mg/kg/injection, schedule: Q01DX009 (ip), vehicle: saline with Tween-80) 100 % of control; under setting [4], 103 % of control; under setting [5], 100 % of control.
In the case of `CCCCCCCCCC(=O)NC(=S)Nc1cccc(C(C)=O)c1`, the T/C is 89 % of control under setting [1]; 87 % of control and 95 % of control under setting [4]; 88 % of control and 104 % of control under setting [8]; 93 % of control under setting [11]; 88 % of control under setting [2]; 91 % of control and 109 % of control under setting [5]. The T/C by setting is: under setting [9], 92 % of control and 96 % of control; under setting [12], 91 % of control; under setting [6], 95 % of control; under setting [10], 88 % of control and 90 % of control; under setting [13], 95 % of control.
On to `CCN(C(=O)c1ccccc1Cl)C(c1ccco1)P(=O)(c1ccccc1)c1ccccc1` (centres undefined), for which the T/C is, setting by setting: under setting [4], 90 % of control; under setting [5], 107 % of control.
`CCCOC(=O)C1CCCCC1C(=O)OCCC` (centres undefined): the T/C reads like this: under setting [14], 98 % of control; under setting [15], 98 % of control; (dose: 400.0 mg/kg/injection, schedule: Q04DX003 (ip), vehicle: saline) 104 % of control.
For the molecule `CC1(C)COC(c2ccccc2)OC1`, the T/C under setting [1] is 95 % of control, the T/C under setting [2] was 103 % of control and the T/C under setting [3] was 101 % of control.
On to `C/C=C1\OC(n2cnc3c(N)ncnc32)C(O)C1O` (centres undefined), for which the T/C was 101 % of control (dose: 12.5 mg/kg/injection, schedule: Q01DX005 (ip), vehicle: distilled water + Tween-80); 109 % of control (dose: 25.0 mg/kg/injection, schedule: Q01DX005 (ip), vehicle: distilled water + Tween-80); 113 % of control (dose: 50.0 mg/kg/injection, schedule: Q01DX005 (ip), vehicle: distilled water + Tween-80); 112 % of control (dose: 50.0 mg/kg/injection, schedule: Q01DX009 (ip), vehicle: distilled water + Tween-80); 119 % of control (dose: 100.0 mg/kg/injection, schedule: Q01DX005 (ip), vehicle: distilled water + Tween-80); 124 % of control (dose: 100.0 mg/kg/injection, schedule: Q01DX009 (ip), vehicle: distilled water + Tween-80). In addition, the T/C (dose: 200.0 mg/kg/injection, schedule: Q01DX009 (ip), vehicle: distilled water + Tween-80) was 157 % of control.
As to `O=S(=O)(/C=C\S(=O)(=O)c1ccccc1)c1ccccc1`, the T/C was 98 % of control (dose: 12.5 mg/kg/injection, schedule: Q01DX009 (ip), vehicle: Klucel (hydroxypropylcellulose) (HPC)) and 95 % of control (dose: 25.0 mg/kg/injection, schedule: Q01DX009 (ip), vehicle: Klucel (hydroxypropylcellulose) (HPC)).
Take `COc1ccc(NC(=O)Nc2cc(C(F)(F)F)ccc2Cl)cc1`: the T/C runs as follows: under setting [4], 90 % of control; under setting [5], 98 % of control; under setting [6], 86 % of control.
In the case of `CCCCCCCCCC(=O)NC(=S)Nc1c(C)cccc1C`, the T/C is 95 % of control (dose: 25.0 mg/kg/injection, schedule: Q01DX001 (ip), vehicle: saline with Tween-80); 95 % of control (dose: 50.0 mg/kg/injection, schedule: Q01DX001 (ip), vehicle: saline with Tween-80); 92 % of control under setting [1]; 92 % of control and 109 % of control under setting [4]; 92 % of control and 96 % of control under setting [8]; 98 % of control under setting [11]. For the same molecule, the T/C reads like this: under setting [2], 91 % of control and 92 % of control; under setting [5], 89 % of control and 98 % of control; under setting [9], 98 % of control and 100 % of control; under setting [12], 95 % of control; under setting [3], 88 % of control; under setting [6], 106 % of control. Moreover, the T/C under setting [10] is 91 % of control and 96 % of control; the T/C under setting [13] was 90 % of control.
In the case of `CC(C)CN1CCCC(=O)C(O)CCC1` (centres undefined), the T/C is 98 % of control (dose: 25.0 mg/kg/injection, schedule: Q01DX009 (ip), vehicle: acetone) and 93 % of control (dose: 50.0 mg/kg/injection, schedule: Q01DX009 (ip), vehicle: acetone).
Consider `c1ccc(C2=NC3CCCCC3N=C2c2ccccc2)cc1` (centres undefined), for which the T/C reads like this: under setting [4], 109 % of control; under setting [5], 113 % of control; under setting [6], 103 % of control.
For the molecule `N#CSC/C(Br)=C/Br`, the T/C is 97 % of control (dose: 6.25 mg/kg/injection, schedule: Q04DX003 (ip), vehicle: saline with Tween-80); 103 % of control (dose: 12.5 mg/kg/injection, schedule: Q04DX003 (ip), vehicle: saline with Tween-80); 92 % of control (dose: 25.0 mg/kg/injection, schedule: Q04DX003 (ip), vehicle: saline with Tween-80).
As for `O=C1CCCC(=O)N1CCCCCCN1C(=O)CCCC1=O`, the T/C runs as follows: under setting [4], 94 % of control; under setting [11], 100 % of control; under setting [5], 108 % of control; under setting [12], 101 % of control; under setting [13], 101 % of control.
For the molecule `CC(C)CCCC(C)C1CCC2C3CCC4CCCCC4(C)C3CCC12C` (centres undefined), the T/C was 95 % of control under setting [4], 94 % of control under setting [5] and 105 % of control under setting [6].
On to `c1ccc2[nH]c(CCCCc3nc4ccccc4[nH]3)nc2c1`, for which the T/C is, setting by setting: under setting [14], 104 % of control; under setting [15], 100 % of control.
Take `CCC(CC)(CC)CCS(=O)[O-].[C-]#[O+].[C-]#[O+].[Fe+6].[c-]1[c-][c-][cH-][c-]1`: the T/C reads like this: under setting [7], 93 % of control; under setting [8], 93 % of control; under setting [9], 104 % of control.
In the case of `NS(=O)(=O)c1cc([N+](=O)[O-])ccc1Cl`, the T/C by setting is: under setting [4], 91 % of control; under setting [5], 98 % of control.
